In PMC6403188, “Species-Specific Structural Requirements of Alpha-Branched Trehalose Diester Mincle Agonists” (Frontiers in Immunology, 2019):

Columns and labels:
primary human PBMCs = test: Cytokine production from primary human PBMCs (multiplex); type: cell-based; settings: plate-coated compound, 24 h, 5 individual donors
Source text: PBMCs were obtained via leukapheresis from normal donors (AllCells, Berkeley, CA) or fresh blood was obtained from health human donors through a University of Montana Institutional Review Board (IRB) approved protocol. PBMCs obtained via leukapheresis were washed in 1x PBS and cryopreserved in freezing media (50% RPMI, 40% FCS, 10% DMSO) for future use. PBMCs from on-site human donors were separated from whole blood via density gradient separation using Histopaque 1077 (Sigma). Cells were washed in RPMI media containing 10% heat inactivated FBS, penicillin/streptomycin/glutamine (complete media) and resuspended at the desired cell concentration in complete media. Cells were treated with the indicated compound concentrations by addition to plates coated with a serial dilution of the stock compound in diluent (50% isopropanol/50% isooctane, fully evaporated).
(§1) Supernatants were harvested from treated cells following 18–24 h of incubation. Supernatants were analyzed using a DuoSet TNFα ELISA (R&D Systems, Minneapolis, MN) or Luminex multiplex panel for analytes TNFα, IL-1β, IL-6, IFNγ, IL-12p70, and IL-23 (R&D Systems) per the manufacturer's instructions. Multiplex analysis was performed using a Luminex 200 instrument (Luminex Corporation) and analyzed with StarStation2.3 software. ELISAs were read on a plate reader at 450 nm and cytokine concentration was calculated by fitting the standard curve OD values to a 4-parameter logistical model using curve fitting software (XLfit, IDBS, Alameda, CA).
To determine if the abridged cytokine repertoire induced by the compounds from the cell lines was a cell-specific or compound-specific phenomenon, the response of a heterogeneous primary human PBMCs to the αTDE compound library was also evaluated. Primary human PBMCs were incubated with the αTDE compound and supernatants were evaluated by multiplex cytokine ELISA for TNFα, IL-1β, IL-23, IL-6 (Th17 associated) and IFNγ and IL-12p70 (Th1 associated). As with THP-1 cells, robust dose-responsive induction of TNFα and IL-1β was detected, but unlike the THP-1 cells dose-responsive stimulation of IL-6 and IL-23 production was also noted in response to a subset of the αTDE compounds (Figure 5). No production of the Th1-associated IFNγ or IL-12p70 were detected (data not shown). […] Consistent with the previous THP-1 cell responses, the longer chain length compounds, B32-B46, induced minimal cytokine responses only at the highest dose evaluated (Figure 5, right graphs).
Figure 5 Cytokine production from primary human mononuclear cells in response to stimulation with synthetic trehalose diester compounds. […] Cryopreserved PBMCs were thawed and applied to the compound-coated plates and incubated at 37°C; supernatant was harvested 24 h later and analyzed for TNFα, IL-1β, IL-23, IL-6. […]

mouse Mincle = biological target: T1, mouse Mincle (Mus musculus, UniProt Q9R0Q8); test: HEK cells expressing mouse Mincle with NF-κB-driven SEAP reporter; type: cell-based; settings: for EC50: average calculated EC50, n = 3, read-out: mMincle EC50 (converted); for EC50 / SEAP induction / activation of mouse Mincle-expressing HEK cells (in words): plate-coated compound, 24 h; for Relative activity in mouse vs. human Mincle HEK cells: comparison of mouse and human Mincle receptor transfected HEK cells
T1 construct: host or cells: HEK (HEK-Blue) cells with NF-κB-driven SEAP reporter
T1 sequence (Q9R0Q8 1-214): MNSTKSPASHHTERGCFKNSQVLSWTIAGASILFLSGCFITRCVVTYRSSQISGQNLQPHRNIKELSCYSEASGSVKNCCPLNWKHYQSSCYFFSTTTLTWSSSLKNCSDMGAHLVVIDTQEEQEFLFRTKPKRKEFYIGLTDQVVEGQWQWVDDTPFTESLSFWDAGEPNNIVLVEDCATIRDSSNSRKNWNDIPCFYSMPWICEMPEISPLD
Method: (§2) Human and mouse Mincle expressing HEK cells were obtained from Invivogen (San Diego, CA). Cells were cultured according to the manufactures instructions in DMEM with 10% FBS, 50 U/ml penicillin, […] streptomycin, […] Normocin, 2 mM L-glutamine, 30 μg/ml blasticidin, 1 μg/ml puromycin and 1x HEK-Blue™ CLR Selection. For assay, indicated compounds were serially diluted in diluent (50%IPA/50% isooctane), 20 μl of a 10x final concentration were applied to the bottom of a 96-well tissue culture plate and the solvent was evaporated for >1 h in a biosafety hood. HEK cells were applied to the plates at a density of 3 × 10^5 cells/well and incubated for 18–24 h at 37°C. Cell supernatants were harvested and analyzed via the manufacturer's instructions using Hek-Blue^TM Detection. SEAP activity was assessed by reading the optical density (OD) at 620–655 nm with a microplate reader; data are expressed as the fold change in OD over vehicle treated cells.
(§3) To investigate the capacity of these molecules to bind to and activate the Mincle receptor, we used human embryonic kidney (HEK) cells expressing the human or mouse Mincle receptor along with an NF-κB-driven secreted embryonic alkaline phosphatase (SEAP) reporter. Many of the αTDE compounds were able to induce production of SEAP in a dose dependent manner (Figure 2). HEK null cells (HEK cells containing the NF-kB reporter without Mincle receptor) were used as a negative controls to confirm the receptor specificity of the compounds in HEK cells expressing human or mouse Mincle reporter (Supplemental Figure 4). […] The relative activity of TDM and TDB in the human and mouse HEK cells is consistent with the results reported by others ([20]). […] This synthetic version is a shorter chain version of the lipid-derived one reported to be “human-specific” ([28]).
(§4) Figure 2 Activation of human or mouse Mincle in response to synthetic αTDE compounds. The indicated compounds were dissolved in 50% isopropanol/isooctane, serially diluted in vehicle and then dried to the bottom of a tissue culture plate. HEK cells transfected with human (A–C) or mouse (D–F) Mincle and an NF-κB-driven SEAP reporter were incubated with the compounds for 24 h followed by assessment of the supernatants for SEAP levels. Data are represented as fold change in OD650 over vehicle treated cells. Graphs are mean values from three independent experiments ± SEM. Table in (G) represents the average calculated EC50 and average max SEAP value (± SD, n = 3) for each compound in each cell line. […]

[1] = system: Hek Blue human or mouse Mincle-expressing cells; type: cell-based; settings: top concentrations, 24 h; compared with vehicle only-treated cells
human Mincle = biological target: T2, human Mincle (Homo sapiens, UniProt Q9ULY5); test: HEK cells expressing human Mincle with NF-κB-driven SEAP reporter; type: cell-based; settings: plate-coated compound, 24 h; for EC50: average calculated EC50, n = 3, read-out: hMincle EC50 (converted)
T2 construct: host or cells: HEK (HEK-Blue) cells with NF-κB-driven SEAP reporter
T2 sequence (Q9ULY5 1-219): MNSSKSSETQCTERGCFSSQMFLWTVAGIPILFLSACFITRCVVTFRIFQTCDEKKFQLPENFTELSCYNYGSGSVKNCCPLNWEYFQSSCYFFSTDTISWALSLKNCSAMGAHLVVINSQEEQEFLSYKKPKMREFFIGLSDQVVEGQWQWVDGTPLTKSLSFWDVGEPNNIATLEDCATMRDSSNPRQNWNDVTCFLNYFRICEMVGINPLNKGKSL
Method: as §2, §3, §4

THP-1 cells = test: TNFα production from THP-1 cells (ELISA); type: cell-based, human; settings: plate-coated compound, 24 h
Method: as §1
Next, investigation into activity of the alpha-branched TDE compounds was extended to include both human and murine monocytic cell lines, THP-1 and RAW264.7, respectively. These cell lines have previously been reported as responsive to the Mincle receptor agonists TDM and TDB ([30], [31]).
Figure 3 TNFα production from human THP-1 cells in response to stimulation with synthetic αTDE compounds. The indicated compounds were dissolved in 50% isopropanol/isooctane, serially diluted in vehicle and then dried to the bottom of a tissue culture plate. THP-1 cells were applied to the compound-coated plates and incubated at 37°C; supernatant was harvested 24 h later and analyzed for TNFα via ELISA (A-E). Results from the 200 μg/ml concentration vs. each compounds acyl chain length are shown in (F). Data points are average of at least two independent experiments ± SD.

| EC50 (human Mincle) | SMILES | EC50 (mouse Mincle) | Cell viability of Mincle HEK cells [1] | also measured |
| --- | --- | --- | --- | --- |
| – | CC(C)C(=O)OC[C@H]1O[C@H](O[C@H]2O[C@H](COC(=O)C(C)C)[C@@H](O)[C@H](O)[C@H]2O)[C@H](O)[C@@H](O)[C@@H]1O [Compound B4] | – | – | Th17-associated cytokine production (TNFα, IL-1β, IL-6, IL-23) from human PBMCs (primary human PBMCs): mixed responses |
| – | CCCCCC(CCCCC)C(=O)OC[C@H]1O[C@H](O[C@H]2O[C@H](COC(=O)C(CCCCC)CCCCC)[C@@H](O)[C@H](O)[C@H]2O)[C@H](O)[C@@H](O)[C@@H]1O [Compound B12] | 1260 nM | marked decreases in viability | – |
| – | CCCCCCC(CCCCCC)C(=O)OC[C@H]1O[C@H](O[C@H]2O[C@H](COC(=O)C(CCCCCC)CCCCCC)[C@@H](O)[C@H](O)[C@H]2O)[C@H](O)[C@@H](O)[C@@H]1O [Compound B14] | 1520 nM | less substantial decreases | – |
| 263 nM | CCCCCCCCCCCCC(CCCCCCCCCCCC)C(=O)OC[C@H]1O[C@H](O[C@H]2O[C@H](COC(=O)C(CCCCCCCCCCCC)CCCCCCCCCCCC)[C@@H](O)[C@H](O)[C@H]2O)[C@H](O)[C@@H](O)[C@@H]1O [Compound B26] | 907 nM | – | TNFα induction from THP-1 cells (in words) (THP-1 cells): roughly equivalent levels of TNFα as B14/B16 |
| 77.4 nM | CCCCCCCCCCCCCC(CCCCCCCCCCCCC)C(=O)OC[C@H]1O[C@H](O[C@H]2O[C@H](COC(=O)C(CCCCCCCCCCCCC)CCCCCCCCCCCCC)[C@@H](O)[C@H](O)[C@H]2O)[C@H](O)[C@@H](O)[C@@H]1O [Compound B28] | 592 nM | – | – |
| 43.8 nM | CCCCCCCCCCCCCCC(CCCCCCCCCCCCCC)C(=O)OC[C@H]1O[C@H](O[C@H]2O[C@H](COC(=O)C(CCCCCCCCCCCCCC)CCCCCCCCCCCCCC)[C@@H](O)[C@H](O)[C@H]2O)[C@H](O)[C@@H](O)[C@@H]1O [Compound B30] | 955 nM | – | – |
| 50.2 nM | CCCCCCCCCCCCCCCC(CCCCCCCCCCCCCCC)C(=O)OC[C@H]1O[C@H](O[C@H]2O[C@H](COC(=O)C(CCCCCCCCCCCCCCC)CCCCCCCCCCCCCCC)[C@@H](O)[C@H](O)[C@H]2O)[C@H](O)[C@@H](O)[C@@H]1O [Compound B32] | 64.4 nM | – | – |
| 21400 nM | CCCCCCCCCCCCCCCCCC(CCCCCCCCCCCCCCCCC)C(=O)OC[C@H]1O[C@H](O[C@H]2O[C@H](COC(=O)C(CCCCCCCCCCCCCCCCC)CCCCCCCCCCCCCCCCC)[C@@H](O)[C@H](O)[C@H]2O)[C@H](O)[C@@H](O)[C@@H]1O [Compound B36] | 25800 nM | – | – |
| – | CCCCCCCCCCCCCCCC(O)C(CCCCCCCCCCCCCC)C(=O)OCC(O)CO (stereo not drawn) [MMG, synthetic glycerol monomycolate, reference compound] | – | – | Relative activity in mouse vs. human Mincle HEK cells (mouse Mincle): more potent in mouse Mincle HEK cells; SEAP induction / activation of mouse Mincle-expressing HEK cells (in words) (mouse Mincle): able to activate; TNFα induction from THP-1 cells (in words) (THP-1 cells): potent, robust induction of TNFα; SEAP induction / activation of human Mincle-expressing HEK cells (in words) (human Mincle): able to activate |
| – | CCCCCCCCCCCCCCCC(O)C(CCCCCCCCCCCCCC)C(=O)OC[C@H]1O[C@H](O[C@H]2O[C@H](COC(=O)C(CCCCCCCCCCCCCC)C(O)CCCCCCCCCCCCCCC)[C@@H](O)[C@H](O)[C@H]2O)[C@H](O)[C@@H](O)[C@@H]1O (stereo partly drawn) [sTDCM, synthetic trehalose dicorynomycolate, reference compound] | – | – | Relative activity in mouse vs. human Mincle HEK cells (mouse Mincle): more potent in the mouse vs. the human; SEAP induction / activation of mouse Mincle-expressing HEK cells (in words) (mouse Mincle): robust ability to activate; TNFα induction from THP-1 cells (in words) (THP-1 cells): potent, robust induction of TNFα; SEAP induction / activation of human Mincle-expressing HEK cells (in words) (human Mincle): robust ability to activate |

| SMILES | EC50 (human Mincle) | EC50 (mouse Mincle) | Cell viability of Mincle HEK cells [1] | also measured |
| --- | --- | --- | --- | --- |
| CCCCCCCCC(CCCCCCCC)C(=O)OC[C@H]1O[C@H](O[C@H]2O[C@H](COC(=O)C(CCCCCCCC)CCCCCCCC)[C@@H](O)[C@H](O)[C@H]2O)[C@H](O)[C@@H](O)[C@@H]1O [Compound B18] | 405 nM | 599 nM | less substantial decreases | – |
| CCCCCCCCCC(CCCCCCCCC)C(=O)OC[C@H]1O[C@H](O[C@H]2O[C@H](COC(=O)C(CCCCCCCCC)CCCCCCCCC)[C@@H](O)[C@H](O)[C@H]2O)[C@H](O)[C@@H](O)[C@@H]1O [Compound B20] | 128 nM | 328 nM | less substantial decreases | – |
| CCCCCCCCCCC(CCCCCCCCCC)C(=O)OC[C@H]1O[C@H](O[C@H]2O[C@H](COC(=O)C(CCCCCCCCCC)CCCCCCCCCC)[C@@H](O)[C@H](O)[C@H]2O)[C@H](O)[C@@H](O)[C@@H]1O [Compound B22] | 322 nM | 689 nM | less substantial decreases | – |
| CCCCCCCCCCCC(CCCCCCCCCCC)C(=O)OC[C@H]1O[C@H](O[C@H]2O[C@H](COC(=O)C(CCCCCCCCCCC)CCCCCCCCCCC)[C@@H](O)[C@H](O)[C@H]2O)[C@H](O)[C@@H](O)[C@@H]1O [Compound B24] | 92.6 nM | 608 nM | less substantial decreases | – |
